# “Also recorded” adds a separate entry of the source.
# System: glycine receptor (GlyR)
# Assay: Glycine-induced chloride current (IGly), whole-cell patch-clamp in isolated pyramidal neurons of the rat hippocampus
# Format: cell-based
# Settings: not given
# Experimental: (§1) All experiments were conducted per the requirements of the Ministry of Public Health of the Russian Federation and were consistent with the EU directive for Use of Experimental Animals of the European Community. […] The cells were isolated from transverse hippocampal slices as described in detail elsewhere ([Vorobjev, 1991]). Briefly, the slices (200–500 μm) of Wistar rats (11–14 days of age) hippocampus or cerebellum were incubated at room temperature for at least 2 h in a solution containing the following components (in mM): 124 NaCl, 3 KCl, 2 CaCl2, 2 MgSO4, 25 NaHCO3, 1.3 NaH2PO4, 10 D-glucose, pH 7.4. The saline was continuously stirred and bubbled with carbogen (95% 0_2 + 5% CO2). Single pyramidal neurons from the hippocampal CA3 area or Purkinje cells from sagittal slices of the cerebellum were isolated by a vibrating fused glass pipette with a spherical tip.
# (§2) Isolated neurons were patch clamped and then lifted into the outflow of the control bath solution. […] The substances were applied through glass capillary, 0.1 mm in diameter, which could be rapidly displaced laterally ([Vorobjev et al., 1996]). A fast perfusion technique allows a complete exchange of external solution surrounding a neuron within 20 ms. […] Transmembrane currents were recorded using a conventional patch-clamp technique in the whole-cell configuration. […] The solution in the recording pipette contained the following (in mM): 40 CsF, 100 CsCl, 0.5 CaCl2, 5 EGTA, 3 MgCl2, 4 NaATP, 5 HEPES, pH 7.3. The composition of the extracellular solution was as follows (in mM): 140 NaCl, 3 KCl, 3 CaCl2, 3 MgCl2, 10 D-glucose, 10 HEPES hemisodium, and pH 7.4. Recording of the currents was performed using EPC7 patch-clamp amplifier (HEKA Electronik, Germany). The holding potential was maintained at −70 mV. Transmembrane currents were filtered at 3 kHz, stored and analyzed with IBM-PC computer, using homemade software.
# (§3) Statistical analysis was performed with the help of Prism Graphpad software. All comparisons were made with ANOVA-test using Dunnett’s multiple comparison test and Student’s unpaired t-test at a significance level of p = 0.05. N = 5–8 cells from 3 to 4 animals for every concentration. […] The meanings of asterisks (probability levels) in figures is the following: ^∗P < 0.05, ^∗∗P < 0.01. The IC50 values for steroids inhibition of the IGly and IGABA were determined using the equation: Y = 1 – [max/(1 + (IC50/C)^n)], where max is the maximum inhibition attainable, C is the concentration of steroid, IC50 is the half-maximal inhibitory concentration and n is the slope factor (Hill coefficient).
# (§4) First, the ability of steroids to affect the holding current at voltage-clamp regime was tested. […] The experiments with IGly were conducted on rat hippocampal neurons, and experiments with IGABA were conducted on rat cerebellar Purkinje cells.
Structure (SMILES),τdes Hill coefficient of IGly,τdes IGly (effect on time constant of desensitization) [%],τdes max (maximum inhibition attainable) of IGly
"C[C@]12CCC(=O)C[C@@H]1CC[C@@H]1[C@@H]2CC[C@]2(C)[C@@H](O)CC[C@@H]12 [Compound 3, 17β-Hydroxy-5α-androstan-3-one]",0.58 ± 0.13,−82,0.97 ± 0.11
"C[C@]12CC[C@H](O)C[C@@H]1CC[C@@H]1[C@@H]2CC[C@]2(C)C(=O)CC[C@@H]12 [Compound 4, 3β-Hydroxy-5α-androstan-17-one]",0.59 ± 0.16,−64,0.70 ± 0.07

# Same assay, conditions: 0.1 μM of steroid; 100 μM glycine; mean ± SEM, normalized
row,Structure (SMILES),τdes/τdes control of IGly
1,"C[C@]12CCC(=O)C[C@@H]1CC[C@@H]1[C@@H]2CC[C@]2(C)[C@@H](O)CC[C@@H]12 [Compound 3, 17β-Hydroxy-5α-androstan-3-one]",0.72 ± 0.06
2,"C[C@]12CC[C@H](O)C[C@@H]1CC[C@@H]1[C@@H]2CC[C@]2(C)C(=O)CC[C@@H]12 [Compound 4, 3β-Hydroxy-5α-androstan-17-one]",0.66 ± 0.05

# Same assay, conditions: 10 μM of steroid; 100 μM glycine; mean ± SEM, normalized
row,Structure (SMILES),Ipeak/Ipeak control of IGly
1,"C[C@]12CCC(=O)C[C@@H]1CC[C@@H]1[C@@H]2CC[C@]2(C)[C@@H](O)CC[C@@H]12 [Compound 3, 17β-Hydroxy-5α-androstan-3-one]",0.78 ± 0.03
2,"C[C@]12CC[C@H](O)C[C@@H]1CC[C@@H]1[C@@H]2CC[C@]2(C)C(=O)CC[C@@H]12 [Compound 4, 3β-Hydroxy-5α-androstan-17-one]",0.75 ± 0.03

# Same assay, conditions: Hill fit, peak amplitude; 100 μM glycine
row,Structure (SMILES),Ipeak max (maximum inhibition attainable) of IGly
1,"C[C@]12CCC(=O)C[C@@H]1CC[C@@H]1[C@@H]2CC[C@]2(C)[C@@H](O)CC[C@@H]12 [Compound 3, 17β-Hydroxy-5α-androstan-3-one]",0.61 ± 0.08
2,"C[C@]12CC[C@H](O)C[C@@H]1CC[C@@H]1[C@@H]2CC[C@]2(C)C(=O)CC[C@@H]12 [Compound 4, 3β-Hydroxy-5α-androstan-17-one]",0.64 ± 0.08

# Same assay, conditions: peak amplitude; 100 μM glycine
row,Structure (SMILES),Ipeak Hill coefficient of IGly
1,"C[C@]12CCC(=O)C[C@@H]1CC[C@@H]1[C@@H]2CC[C@]2(C)[C@@H](O)CC[C@@H]12 [Compound 3, 17β-Hydroxy-5α-androstan-3-one]",0.86 ± 0.15
2,"C[C@]12CC[C@H](O)C[C@@H]1CC[C@@H]1[C@@H]2CC[C@]2(C)C(=O)CC[C@@H]12 [Compound 4, 3β-Hydroxy-5α-androstan-17-one]",0.97 ± 0.21

# Same assay, conditions: read-out: Ipeak IC50 of IGly; inhibition of peak amplitude; 100 μM glycine
row,Structure (SMILES),IC50 [µM]
1,"C[C@]12CCC(=O)C[C@@H]1CC[C@@H]1[C@@H]2CC[C@]2(C)[C@@H](O)CC[C@@H]12 [Compound 3, 17β-Hydroxy-5α-androstan-3-one]",20.1 ± 2.8
2,"C[C@]12CC[C@H](O)C[C@@H]1CC[C@@H]1[C@@H]2CC[C@]2(C)C(=O)CC[C@@H]12 [Compound 4, 3β-Hydroxy-5α-androstan-17-one]",17.1 ± 2.3

# Same assay, conditions: read-out: τdes IC50 of IGly
row,Structure (SMILES),IC50 [µM]
1,"C[C@]12CCC(=O)C[C@@H]1CC[C@@H]1[C@@H]2CC[C@]2(C)[C@@H](O)CC[C@@H]12 [Compound 3, 17β-Hydroxy-5α-androstan-3-one]",0.42 ± 0.14
2,"C[C@]12CC[C@H](O)C[C@@H]1CC[C@@H]1[C@@H]2CC[C@]2(C)C(=O)CC[C@@H]12 [Compound 4, 3β-Hydroxy-5α-androstan-17-one]",0.12 ± 0.05

# Target: T1, GABAA receptors (Rattus norvegicus, UniProt P18508+P62813+P63138)
# T1 construct: Single pyramidal neurons from the hippocampal CA3 area or Purkinje cells from sagittal slices of the cerebellum were isolated; endogenous in cells; host or cells: acutely isolated Purkinje cells from cerebellar slices of Wistar rats, 11-14 days old
# Assay: not given
# Format: cell-based
# Settings: not given
# Experimental: as §1, §2, §3, §4
# T1 sequence (P62813 28-455): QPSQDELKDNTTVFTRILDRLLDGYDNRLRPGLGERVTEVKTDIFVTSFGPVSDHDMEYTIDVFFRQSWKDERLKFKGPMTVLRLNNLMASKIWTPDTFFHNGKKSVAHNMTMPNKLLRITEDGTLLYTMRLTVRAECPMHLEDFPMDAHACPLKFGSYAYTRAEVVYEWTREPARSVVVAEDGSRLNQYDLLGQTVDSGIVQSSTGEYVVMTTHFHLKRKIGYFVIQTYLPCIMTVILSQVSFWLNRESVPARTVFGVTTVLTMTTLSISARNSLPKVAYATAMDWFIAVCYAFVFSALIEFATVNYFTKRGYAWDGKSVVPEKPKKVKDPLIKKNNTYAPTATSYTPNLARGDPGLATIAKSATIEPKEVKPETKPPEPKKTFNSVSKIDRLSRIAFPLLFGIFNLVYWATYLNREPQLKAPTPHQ
# T1 sequence (P63138 25-474 limits assumed): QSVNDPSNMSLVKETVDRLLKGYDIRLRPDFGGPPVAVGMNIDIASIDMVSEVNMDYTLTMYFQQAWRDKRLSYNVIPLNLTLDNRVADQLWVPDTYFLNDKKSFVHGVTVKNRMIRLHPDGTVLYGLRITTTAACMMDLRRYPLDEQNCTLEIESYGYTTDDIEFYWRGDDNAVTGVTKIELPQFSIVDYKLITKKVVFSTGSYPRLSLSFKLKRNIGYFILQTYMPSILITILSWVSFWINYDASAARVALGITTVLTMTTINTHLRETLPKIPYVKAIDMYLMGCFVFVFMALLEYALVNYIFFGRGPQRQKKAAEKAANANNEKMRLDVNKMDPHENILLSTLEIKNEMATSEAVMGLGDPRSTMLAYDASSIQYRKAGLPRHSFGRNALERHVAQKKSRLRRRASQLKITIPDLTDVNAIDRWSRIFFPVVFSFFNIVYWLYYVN
# T1 sequence (P18508 39-466): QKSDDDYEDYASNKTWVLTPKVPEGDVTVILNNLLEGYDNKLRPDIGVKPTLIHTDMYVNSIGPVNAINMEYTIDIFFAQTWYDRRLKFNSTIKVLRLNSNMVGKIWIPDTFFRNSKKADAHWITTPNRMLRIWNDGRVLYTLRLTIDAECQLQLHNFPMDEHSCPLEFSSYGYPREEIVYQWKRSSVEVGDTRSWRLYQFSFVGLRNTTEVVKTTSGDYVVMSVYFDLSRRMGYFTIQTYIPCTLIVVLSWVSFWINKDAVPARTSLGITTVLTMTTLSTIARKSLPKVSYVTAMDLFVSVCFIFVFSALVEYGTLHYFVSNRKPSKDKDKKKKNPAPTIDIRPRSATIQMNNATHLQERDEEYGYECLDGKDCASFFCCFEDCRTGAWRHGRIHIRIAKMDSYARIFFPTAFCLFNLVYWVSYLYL
Structure (SMILES),Ipeak/Ipeak control of IGABA,Modulation of IGABA (peak amplitude or rate of decay/desensitization),τdes IGABA (effect in words),τdes/τdes control of IGABA,Acceleration of decay (desensitization) of IGABA,Decrease in the peak amplitude of IGABA,τdes IGABA (effect on time constant of desensitization) [%]
"C[C@]12CCC(=O)C[C@@H]1CC[C@@H]1[C@@H]2CC[C@]2(C)[C@@H](O)CC[C@@H]12 [Compound 3, 17β-Hydroxy-5α-androstan-3-one]",0.95 ± 0.03,did not modulate; also recorded: remained inactive; also recorded: did not change,^cNo effect,0.98 ± 0.02,,,
"C[C@]12CC[C@H](O)C[C@@H]1CC[C@@H]1[C@@H]2CC[C@]2(C)C(=O)CC[C@@H]12 [Compound 4, 3β-Hydroxy-5α-androstan-17-one]",0.75 ± 0.03,,,0.80 ± 0.03,23–45%,14–25%,−20
